Legend:
[1] = Toxicity in CD-1 mice by i.p. injection; type: in vivo, CD-1 white female mice; details: mouse, in vivo, ip, 0.6 mg; 600 μg free AD; read-out: animals killed
Procedure: (§1) CD-1 white female mice, 5-7 weeks of age, weighing 30-33 g were injected by the intraperitoneal (i.p.) route with AD at concentrations of 0.6 mg and 1.5 mg dissolved in 0.5 ml of sterile saline. A second group of animals were injected with AD-PGA(15%)-HSA/MS-Q with 0.6, 1.5, and 2.5 mg of bound AD. For each concentration of the free and bound drug, 5 mice were used. PGA(15%)-HSA/MS-Q without AD was used for a control group and injected in equivalent weight amounts. Animals were then observed over a two-month period and fatalities were recorded for each group and tabulated.

CD-1 mice = assay: Toxicity in CD-1 mice by i.p. injection; type: in vivo, CD-1 white female mice
Procedure: as §1

With `COc1cccc2c1C(=O)c1c(O)c3c(c(O)c1C2=O)C[C@@](O)(C(=O)CO)C[C@@H]3O[C@H]1C[C@H](N)[C@H](O)[C@H](C)O1` [AD, Adriamycin] the mortality at 1460 h [1] was > 80%, the “Survival from Time of Administration” value (CD-1 mice; AD 0.6 mg i.p. (free or bound), 7 days) was 5/5 and the “Survival from Time of Administration” value (CD-1 mice; AD 0.6 mg i.p. (free or bound), 14 days) was 1/5. For the same compound, the “Survival from Time of Administration” value (CD-1 mice; AD 0.6 mg i.p. (free or bound), 21 days) was 1/5, the “Survival from Time of Administration” value (CD-1 mice; AD 0.6 mg i.p. (free or bound), 28 days) was 1/5 and the “Survival from Time of Administration” value (CD-1 mice; AD 0.6 mg i.p. (free or bound), 35 days) was 1/5. The “Survival from Time of Administration” value (CD-1 mice; AD 1.5 mg i.p. (free or bound), 7 days) was 5/5, the “Survival from Time of Administration” value (CD-1 mice; AD 1.5 mg i.p. (free or bound), 14 days) was 0/5 and the “ulcer development at site of injection” value (CD-1 mice; i.p.) was “All animals treated with free AD developed these ulcers”.

Reference: US4871716A, “Magnetically responsive, hydrophilic microspheres for incorporation of therapeutic substances and methods of preparation thereof” (priority 1986, dated 1989)
